One assay concerns the target T1, HMG-CoA reductase (Rattus norvegicus, UniProt P51639).
T1 construct: solubilized enzyme preparations from liver microsomes of rats; from tissue; host or cells: rat liver microsomes (solubilized), rats induced with cholestyramine
T1 sequence (P51639 1-887): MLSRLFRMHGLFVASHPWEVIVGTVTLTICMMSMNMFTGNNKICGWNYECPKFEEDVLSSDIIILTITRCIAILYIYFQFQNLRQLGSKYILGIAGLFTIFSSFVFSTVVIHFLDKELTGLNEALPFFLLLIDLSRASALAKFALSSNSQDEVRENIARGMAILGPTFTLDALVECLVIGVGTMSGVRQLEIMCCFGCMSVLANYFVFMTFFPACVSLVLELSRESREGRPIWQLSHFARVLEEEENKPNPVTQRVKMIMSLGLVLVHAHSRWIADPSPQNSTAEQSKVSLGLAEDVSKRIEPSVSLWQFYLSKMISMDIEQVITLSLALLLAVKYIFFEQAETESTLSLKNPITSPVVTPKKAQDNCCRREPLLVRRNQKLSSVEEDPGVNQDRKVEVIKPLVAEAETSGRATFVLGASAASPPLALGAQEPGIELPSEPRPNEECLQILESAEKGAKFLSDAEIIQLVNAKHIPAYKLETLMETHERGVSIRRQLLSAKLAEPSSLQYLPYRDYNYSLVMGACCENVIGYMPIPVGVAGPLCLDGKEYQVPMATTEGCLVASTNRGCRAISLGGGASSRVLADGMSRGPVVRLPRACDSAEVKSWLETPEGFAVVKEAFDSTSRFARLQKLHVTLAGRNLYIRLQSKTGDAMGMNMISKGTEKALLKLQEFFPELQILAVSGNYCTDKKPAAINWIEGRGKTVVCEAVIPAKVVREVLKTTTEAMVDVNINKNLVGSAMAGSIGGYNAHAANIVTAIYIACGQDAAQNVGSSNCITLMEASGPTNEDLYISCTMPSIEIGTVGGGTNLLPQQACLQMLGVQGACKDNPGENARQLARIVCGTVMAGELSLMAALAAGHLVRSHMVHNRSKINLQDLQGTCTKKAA
Description: HMG-CoA reductase activity in enzyme preparations (solubilized enzyme from liver microsomes of rats). It is filed as biochemical. As to conditions: (SmR) 14C-HMG-CoA substrate. On the procedure: The HMG-CoA reductase activity was measured on solubilized enzyme preparations from liver microsomes of rats which had been induced with cholestyramine (®Cuemid) after changing the day/night rhythm. (Sm R) ^14 C-HMG-CoA was used as substrate, and the concentration of NADPH was maintained during the incubation by a regenerating system. ^14 C-mevalonate was separated from the substrate and other products (for example ^14 C-HMG) by column elution, with the elution profile of each individual sample being determined. ^3 H-Mevalonate was not always included because the object was to determine relative data on the inhibitory effect. In each test series the enzyme-free control, the enzyme-containing normal mixture (=100%) and those with added product, final concentration 10^-5 to 10^-9 M, were treated together. Each individual value was formed as the mean of 3 parallel samples. The significance of the differences between means for product-free and product-containing samples was assessed by the t test.
Using the method described above, for example, the following values for the inhibition of HMG-CoA reductase were found for the compounds according to the invention [IC50 /mol/liter denotes the molar concentration of the compound per liter required for a 50% inhibition]. […]
On the technique in general: Liver microsomes are a subcellular fraction often used to study metabolism.

For assay [1], the system named is cholesterol biosynthesis in HEP-G2 cells. As to the kind of experiment: Inhibition of cholesterol biosynthesis in HEP-G2 cell cultures. Format: cell-based. As to conditions: for IC50: Homo sapiens, HepG2, 14C-cholesterol formed from 14C-precursor; for relative activity (IC50 ref./IC50): vs analogous hept-6E-enoic acid derivative. On the procedure:
Monolayers of HEP-G2 cells in lipoprotein-free nutrient medium were preincubated with the appropriate concentrations of the test substances for a defined time (for example 1 hour) and, after addition of the labeled precursor, for example sodium ^14 C-acetate, the incubation was continued (for example for 3 hours). After addition of an internal standard (^3 H-cholesterol) a portion of the cells was subjected to alkaline hydrolysis. The lipids from the hydrolyzed cells were extracted with chloroform/methanol. This lipid mixture was, after addition of carrier cholesterol, subjected to preparative thin-layer chromatography, the cholesterol band was visualized with iodine vapor and then isolated, and the amount of ^14 C-cholesterol formed from the ^14 C-precursor was determined by scintigraphy. Cell protein was determined in an aliquot of the cells so that it is possible to calculate the amount of ^14 C-cholesterol formed in unit time per mg of cell protein. The inhibitory effect of the particular test product on cholesterol biosynthesis by HEP-G2 cell cultures emerged by comparison of this figure with the amount of ^14 C-cholesterol formed per mg of cell protein and unit time in a culture treated in the same way but free of test substance.
Testing of substances for inhibition of cholesterol biosynthesis in confluent cell cultures (monolayers) of HEP-G2 cells [drawing 17]
Using the method described above, for example the following figures for the inhibition of cholesterol biosynthesis (in HEP-G2 cells) were found for the compounds according to the invention (the IC50 /mol is that concentration of the compound which brings about 50% inhibition of cholesterol biosynthesis). IC50 values were determined for the compounds according to the invention as well as for identically substituted 3,5-dihydroxyhept6E-enoic acid derivatives (IC50 ref.). The quotient IC50 ref./IC50 yielded the relative activity of the compounds according to the invention. […] This corresponds to a relative activity of 1.6 based on the analogous hept-6E-enoic acid derivative.

A word on the IC50: it is the point on the concentration scale where inhibition reaches its midpoint. Read a high IC50 as a need for much substance.

Regarding `CC(C)c1nc(-c2ccccc2)cc(-c2ccc(F)cc2)c1C#C[C@@H](O)C[C@@H](O)CC(=O)O` (relative stereo) [Example 7a, sodium 3RS, 5SR-dihydroxy-7-(4-(4-fluorophenyl)-2-(1-methylethyl)-6-phenylpyridin-3-yl)hept-6-ynoate], the IC50 at HMG-CoA reductase was determined as 3 nM. On the same count and under the same terms, the same measure for `CC(C)C(C#C[C@@H](O)C[C@@H](O)CC(=O)O)=C(c1ccc(F)cc1)c1ccc(F)cc1` (relative stereo) [Example 7l]: 5.7 nM.

Take `CC(C)c1nc(-c2ccccc2)cc(-c2ccc(F)cc2)c1C#C[C@@H]1C[C@@H](O)CC(=O)O1` (relative stereo) [Example 8a, 6RS-2-(4-(4-Fluorophenyl)-2-(1-methylethyl)-6-phenylpyridin-3-yl)ethynyl-4SR-hydroxy-3,4,5,6-tetrahydro-2H-pyran-2-one]: in assay [1], the half-maximal inhibitory concentration (IC50) stood at 9 nM and the “relative activity (IC50 ref./IC50)” value was found to be 2.67. The like results for `CC(C)c1nc(-c2ccc(F)cc2)nc(-c2ccc(F)cc2)c1C#C[C@@H]1C[C@@H](O)CC(=O)O1` (relative stereo) [Example 8e] were, in that order, 11 nM and 1.6.

Values taken from patent publication US5091386A, “7-substituted derivatives of 3,5-dihydroxyhept-6-ynoic acids and corresponding lactones and their use as hypercholeserolemics” (Hoechst Aktiengesellschaft, priority 1988, dated 1992).
